Results: patent US20210261539A1, “COMPOUND HAVING BET INHIBITORY ACTIVITY AND PREPARATION METHOD AND USE THEREFOR” (Shanghai Haihe Pharmaceutical Co., Ltd., priority 2018, published 2021)

Each molecule was assayed against T1, BRD4 BD1 (Homo sapiens, UniProt O60885) (assay: HTRF in vitro enzyme activity assay, inhibition of BRD4 BD1 binding to acetylated H4 peptide). Details: IC50 values of the compounds against BRD4 BD1 binding; class symbols A/B/C.
T1 construct: Protein BRD4 BD1 used in the assay was purchased from Active Motif (cat. 31380); purchased Active Motif 31380
Procedure: Effect Examples: In Vitro Enzyme Activity Assay
Half inhibitory activity (IC50) of the compounds of the invention against the bromodomain protein BRD4 BD1 was determined in the present Examples.
The compounds of the invention were tested for inhibitory activity against BRD4 BD1 with Homogeneous Time-Resolved Fluorescence (HTRF).
2. Reagents, Consumable Materials and Instruments:
Protein BRD4 BD1 used in the assay was purchased from Active Motif (cat. 31380); streptavidin XL-665 (#610SAXLA) and EPIgeneous Binding Domain Kit A (#62BDAPEG) were both purchased from Cisbio Bioassays; [Lys(5,8,12,16)Ac] H4(1-21)-biotin (#64989), [Lys(5,8,12,16)Ac]H4(1-25) were available from Anaspec; OTX015 and ABBV-075 were purchased from Selleckchem Co. The 384-well ProxiPlate (#6008280) was purchased from Perkinelmer Co. The Laboratory microplate reader (Envision 2104) was available from PerkinElmer Co. The water used in the assay was Millipore-Q pure water.
3. Formulation of the Compound
10 mM DMSO stock solution of the test compound was diluted to 1 mM in DMSO, and then diluted 10-fold in Binding Domain dilution buffer (purchased from Cisbio Bioassays) for use (DMSO concentration in the final system was 0.1%), including 5 concentrations in 1:5 gradient.
4. Assay Protocol: 1 Batch, 2 Repeats
1) 5 μL of test compound was transferred to 45 μL Binding Domain dilution buffer.
2) 2 μL of 1× compound (4 μL Binding Domain dilution buffer: positive control; 6 μL enzyme buffer (purchased from Cisbio Bioassays): negative control) was transferred to a reaction plate.
3) 4 μL of 5×BRD 4(1) was added to the reaction plate (30 nM in the final system).
4) 4 μL of 5×[Lys(5,8,12,16)Ac] H4(1-21)-biotin was added to the reaction plate, and the plate was covered with a film and incubated at 37° C. for 30 min.
5) A detection mixture of SA-XL665 (2×) and anti-H3K9me0-Eu(K) (2×) was prepared in detection buffer (purchased from Cisbio Bioassays).
6) 10 μL of detection mixture (2×) was added to each well, incubated at RT for 3 h. The mp value was read by microplate reader Envision with the following parameters: […]
For `C[C@@H]1C(=O)N(C)c2cnc(N3C(=O)c4ccccc4C3c3cccnc3)nc2N1C` (stereo partly drawn) [Example A90-P4, (7R)-5,7,8-trimethyl-2-(1-oxo-3-(pyridin-3-yl)isoindolin-2-yl)-7,8-dihydropteridin-6(5H)-one], the IC50 was ≤ 10 nM.
For `CC1C(=O)N(C)c2ccc(N3C(=O)c4cc(C(=O)N5CCN(C)CC5)ccc4C3c3ccc(F)cc3)nc2N1C1CC1` (single isomer, unassigned) [Example A78-P4, 4-cyclopropyl-6-(1-(4-fluorophenyl)-5-(4-methylpiperazine-1-carbonyl)-3-oxoisoindolin-2-yl)-1,3-dimethyl-3,4-dihydropyrido[2,3-b]pyrazin-2(1H)-one], the IC50 was ≤ 10 nM.
`CC1C(=O)N(C)c2cnc(N3C(=O)c4ccccc4C3c3ccc(C(F)(F)F)cc3)nc2N1C1CC1` (single isomer, unassigned) [Example A93-P4, 8-cyclopropyl-5,7-dimethyl-2-(1-oxo-3-(4-(trifluoromethyl)phenyl)isoindolin-2-yl)-7,8-dihydropteridin-6(5H)-one] was tested, and the IC50 was ≤ 10 nM.
With `CC1C(=O)N(C)c2ccc(N3C(=O)CCC3c3ccccc3)nc2N1C1CCCC1` (single isomer, unassigned) [Example A2-P2-2, 4-cyclopentyl-1,3-dimethyl-6-(2-oxo-5-phenylpyrrolidin-1-yl)-3,4-dihydropyrido[2,3-b]pyrazin-2(1H)-one] the IC50 was ≤ 10 nM.
With `CC1C(=O)N(C)c2ccc(N3C(=O)c4ccccc4C3c3ccc(F)cc3)nc2N1C1CC1` (single isomer, unassigned) [Example A23P4, 4-cyclopropyl-6-(1-(4-fluorophenyl)-3-oxoisoindolin-2-yl)-1,3-dimethyl-3,4-dihydropyrido[2,3-b]pyrazin-2(1H)-one] the IC50 was ≤ 10 nM.
In the case of `C[C@H]1Oc2nc(N3C(=O)c4ccccc4C3c3ccc(Cl)nc3)ccc2N(C)C1=O` (single isomer, unassigned) [Example A122-P1], the IC50 is reported as 10 to 100 nM.
For `CC1C(=O)N(C)c2ccc(N3C(=O)c4ccccc4C3(O)c3ccc(F)cc3)nc2N1C1CC1` (stereo not shown) [Compound A25, 4-cyclopropyl-6-(1-(4-fluorophenyl)-1-hydroxy-3-oxoisoindolin-2-yl)-1,3-dimethyl-3,4-dihydropyrido[2,3-b]pyrazin-2(1H)-one], the IC50 was 10 to 100 nM.
`Cc1ccc(C2c3ccccc3C(=O)N2c2ccc3c(n2)O[C@H](C)C(=O)N3C)cn1` (single isomer, unassigned) [Example A112-P1] was tested, and the IC50 was ≤ 10 nM.
With `CC1C(=O)N(C)c2ccc(N3C(=O)c4ccccc4C3c3ccccc3)nc2N1C1CC1` (single isomer, unassigned) [Example A11-P3, 4-cyclopropyl-1,3-dimethyl-6-(1-oxo-3-phenylisoindolin-2-yl)-3,4-dihydropyrido[2,3-b]pyrazin-2(1H)-one] the IC50 was ≤ 10 nM.
In the case of `CC1C(=O)N(C)c2ccc(N3C(=O)CCC3c3ccc(F)cc3F)nc2N1C1CC1` (single isomer, unassigned) [Example A7-P3, 4-cyclopropyl-6-(2-(2,4-difluorophenyl)-5-oxopyrrolidin-1-yl)-1,3-dimethyl-3,4-dihydropyrido[2,3-b]pyrazin-2(1H)-one], the IC50 is reported as ≤ 10 nM.
For `CSc1cccc2c1C(=O)N(c1ccc3c(n1)N(C1CC1)C(C)C(=O)N3C)C2c1cccnc1` (single isomer, unassigned) [Example A65-P3, 4-cyclopropyl-1,3-dimethyl-6-(4-(methylthio)-3-oxo-1-(pyridin-3-yl)isoindolin-2-yl)-3,4-dihydropyrido[2,3-b]pyrazin-2(1H)-one], the IC50 was ≤ 10 nM.
In the case of `[2H]C([2H])([2H])N1C(=O)C(C)N(C2CC2)c2nc(N3C(=O)c4ccccc4C3c3ccc(F)cc3)ccc21` (stereo not shown) [Example A51-P3, 4-cyclopropyl-6-(1-(4-fluorophenyl)-3-oxoisoindolin-2-yl)-3-methyl-1-(trideuteromethyl)-3,4-dihydropyrido [2,3-B]pyrazin2(1 H)-one], the IC50 is reported as ≤ 10 nM.
`C[C@@H]1C(=O)N(C)c2cnc(N3C(=O)c4c(cccc4C(C)(C)O)C3c3ccc(F)cc3)nc2N1C` (single isomer, unassigned) [Example A96-P1] was tested, and the IC50 was ≤ 10 nM.
`CC1C(=O)N(C)c2cnc(N3C(=O)c4ccccc4C3c3ccccc3)nc2N1C1CC1` (single isomer, unassigned) [Example A92-P4, 8-cyclopropyl-5,7-dimethyl-2-(1-oxo-3-phenylisoindolin-2-yl)-7,8-dihydropteridin-6(5H)-one] was tested, and the IC50 was ≤ 10 nM.
With `CC1C(=O)N(C)c2ccc(N3C(=O)c4c(cccc4[S+](C)[O-])C3c3cccnc3)nc2N1C1CC1` (single isomer, unassigned) [Example A60-P1] the IC50 was ≤ 10 nM.
For `CC1C(=O)N(C)c2ccc(N3C(=O)c4c(cccc4[S+](C)[O-])C3c3cccnc3)nc2N1C1CC1` (single isomer, unassigned) [Example A60-P2], the IC50 was ≤ 10 nM.
With `CC1C(=O)N(C)c2ccc(N3C(=O)c4ccccc4C3c3ccccc3)nc2N1CC(F)(F)F` (stereo not shown) [Example A56-P1, 1,3-dimethyl-6-(1-oxo-3-phenylisoindolin-2-yl)-4-(2,2,2-trifluoroethyl)-3,4-dihydropyrido [2,3-b]pyrazin-2(1H)-one] the IC50 was ≤ 10 nM.
In the case of `CCN1C(=O)C(C)N(C2CCCC2)c2nc(-n3c(=O)c4ccccc4n3-c3ccc(Cl)cc3)ccc21` (racemic) [Example A28, 6-(1-(4-chlorophenyl)-3-oxo-1,3-dihydro-2H-indazol-2-yl)-4-cyclopentyl-1-ethyl-3-methyl-3,4-dihydropyridine [2,3-b]pyrazin-2(1H)-one], the IC50 is reported as 10 to 100 nM.
With `CC1Oc2nc(N3C(=O)CCC3c3ccc(F)cc3)ccc2N(C)C1=O` (single isomer, unassigned) [Example A21-P1, 6-(2-(4-fluorophenyl)-5-oxopyrrolidin-1-yl)-1,3-dimethyl-1H-pyrido[2,3-B][1,4]oxazin-2(3H)-one] the IC50 was ≤ 10 nM.
In the case of `C[C@@H]1C(=O)N(C)c2cnc(N3C(=O)c4cc(F)ccc4C3c3cccnc3)nc2N1C1CC1` (stereo partly drawn) [Example A95-P4, (7R)-8-cyclopropyl-2-(5-fluoro-3-oxo-1-(pyridin-3-yl)isoindolin-2-yl)-5,7 dimethyl-7,8-dihydropteridin-6(5H)-one], the IC50 is reported as ≤ 10 nM.
In the case of `CC1C(=O)N(C)c2ccc(N3C(=O)c4cccnc4C3(O)c3ccc(F)cc3F)nc2N1C1CC1` (single isomer, unassigned) [Example A13-P1, 4-cyclopropyl-6-(7-(2,4-difluorophenyl)-7-hydroxy-5-oxo-5,7-dihydro-6H-pyrrolo[3,4-b]pyridin-6-yl)-1,3-dimethyl-3,4-dihydropyrido[2,3-b]pyrazin-2(1H)-one], the IC50 is reported as ≤ 10 nM.
With `CC1C(=O)N(C)c2ccc(-n3c(=O)c4ccccc4n3-c3ccc(Cl)cc3)nc2N1C1COC1` (stereo not shown) [Example A26-P2, 6-(1-(4-chlorophenyl)-3-oxo-1,3-dihydro-2H-indazol-2-yl)-1,3-dimethyl-4-(oxetan-3-yl)-3,4-dihydropyrido [2,3-b]pyrazin-2(1H)-one] the IC50 was ≤ 10 nM.
In the case of `CC1C(=O)N(CC(F)F)c2ccc(N3C(=O)c4ccccc4C3c3cccnc3)nc2N1C1CC1` (stereo not shown) [Example A53-P4, 4-cyclopropyl-1-(2,2-difluoroethyl)-3-methyl-6-(1-oxo-3-(pyridin-3-yl)isoindolin-2-yl)-3,4-dihydropyrido [2,3-b]pyrazin-2(1H)-one], the IC50 is reported as ≤ 10 nM.
Work on `Cc1ccc(C2c3ccccc3C(=O)N2c2nc3c(cc2F)N(C)C(=O)[C@@H](C)O3)cn1` (stereo partly drawn) [Example A114-P3, (R)-7-fluoro-1,3-dimethyl-6-(1-(6-methylpyridin-3-yl)-3-oxoisoindolin-2-yl)-1H-pyrido[2,3-b][1,4]oxazin-2(3H)-one] yielded an IC50 of 100 to 1000 nM.
`C[C@H]1Oc2nc(N3C(=O)c4c([S+](C)[O-])cccc4C3(O)c3cccnc3)ccc2N(C)C1=O` (single isomer, unassigned) [Example A129-P3] was tested, and the IC50 was 10 to 100 nM.
`C[C@@H]1C(=O)N(C)c2ccc(N3C(=O)c4ccccc4C3c3ccccn3)nc2N1C` (stereo partly drawn) [Example A42-P2, (3R)-1,3,4-trimethyl-6-(1-oxo-3-(pyridin-2-yl)isoindolin-2-yl)-3,4-dihydropyrido [2,3-b]pyrazin-2-(1H)-one] was tested, and the IC50 was ≤ 10 nM.
With `C[C@@H]1C(=O)N(C)c2ccc(N3C(=O)c4c(cccc4[S+](C)[O-])C3c3cccnc3)nc2N1C` (single isomer, unassigned) [Example A63-P4] the IC50 was ≤ 10 nM.
`CC1C(=O)N(C)c2cnc(N3C(=O)c4ccccc4C3c3cccnc3)nc2N1C1CC1` (single isomer, unassigned) [Example A98-P3, 8-cyclopropyl-5,7-dimethyl-2-(1-oxo-3-(pyridin-3-yl)isoindolin-2-yl)-7,8-dihydropteridin-6(5H)-one] was tested, and the IC50 was ≤ 10 nM.
